Test results as given in patent US4683240A, “Pharmaceutical composition containing an imidazolidinetrione derivative or pharmaceutically acceptable salt thereof” (Nippon Zoki Pharmaceutical Co., Ltd., priority 1985, dated 1987).
Where two headings read alike, the source gives them in different places.

Experiments:
Format in all cases: in vivo, rat (Wistar-strain)
Blood Glucose = assay: Hypoglycemic effect in glucose-loaded fasted rats (blood glucose); conditions: for inhibition in vivo at 100 mg/kg: Rattus norvegicus, vs control, read-out: Blood Glucose Decrease; for inhibition in vivo at 100 mg/kg / Blood Glucose Level: 100 mg/kg oral, 2 h
Description: Groups of 7 Wistar-strain male rats (weighing about 200 g) which were fasted for 18 hours were used for measurement of hypoglycemic effect according to the modified method by Dulin et al. [Dulin, W. L. et al., Proc. Soc. Expl. Med., 107, 245 (1961)]. That is, 0.5 ml/100 g of 20% aqueous solution of glucose was subcutaneously administered to the backs of rats to prevent a decrease in blood glucose level because of the fasting. Immediately thereafter the test drug suspended in 0.5% aqueous C.M.C. solution was orally given, and 2 hours later, the animals underwent laparotomy under pentobarbital anesthesia, then blood was drawn from the vena cava. The obtained blood sample was allowed to stand for 30 minutes to complete the coagulation and was centrifuged to obtain the serum. Blood sugar level was measured according to the mutalotase GOD method [Trinder, Ann. Clin. Biochem., 6, 24 […]]. Asterisks indicate significant differences (*: p<0.05, **: p<0.01, ***: p<0.001) from the control.

Serum Phospholipid = assay: Hypolipidemic effect: serum phospholipid; conditions: 2 h
Description: (§1) The test drugs suspended in 0.5% aqueous C.M.C. solution were orally administered to groups of 8 Wistar-strain male rats (weighing about 185 g) which were fasted for 18 to 20 hours. 2 hours later, the serum was obtained in the same manner described in (2). Serum triglyceride was measured according to the GPO-p-chlorophenol colorimetric determination [Richard W. Spayd et al., Clinical Chemistry, 24, 1343 (1978)], serum free fatty acid was measured according to the Acyl CoA Synthetase-Acyl CoA Oxidase method [Shimizu S. et al., Biochem. Biophys. Res. Commun., 91, 108 (1979)], free fatty acid was measured according to the enzymatic method [Charles C. Allain et al., Clin. Chem., 20, No. 4, 470 (1974)] and total cholesterol was measured according to the enzymatic method [Takayama M. et al., Clinica Chimica Acta, 79, 93 (1977)]. Asterisks indicate significant differences (*: p<0.05, **: p<00.01, ***: p<0.001) from the control.

Serum Free Fatty Acid = assay: Hypolipidemic effect: serum free fatty acid; conditions: 2 h
Description: as §1

Serum Triglyceride = assay: Hypolipidemic effect: serum triglyceride; conditions: 2 h
Description: as §1

Total Serum Cholesterol = assay: Hypolipidemic effect: total serum cholesterol; conditions: 2 h
Description: as §1

[1] = 100 mg/kg oral, control 79 ± 2 (compounds 2-12), 72 ± 2 (compounds 15-29)
[2] = Rattus norvegicus, 100 mg/kg oral, vs control, read-out: Serum Phospholipid Decrease
[3] = 100 mg/kg oral, control 0.53 ± 0.03 (compounds 2-12), 0.52 ± 0.03 (compounds 15-24)
[4] = Rattus norvegicus, 100 mg/kg oral, vs control, read-out: Serum Free Fatty Acid Decrease
[5] = 100 mg/kg oral, control 65 ± 5 (compounds 2-12), 57 ± 4 (compounds 15-29)
[6] = Rattus norvegicus, 100 mg/kg oral, vs control, read-out: Serum Triglyceride Decrease
[7] = 100 mg/kg oral, control 44 ± 2 (compounds 4-12), 41 ± 1 (compounds 15-29)
[8] = Rattus norvegicus, 100 mg/kg oral, vs control, read-out: Total Serum Cholesterol Decrease

Row | Structure (SMILES) | inhibition in vivo at 100 mg/kg (Blood Glucose; Table 2) [%] | Blood Glucose Level (Blood Glucose; Table 2, control 133 ± 6) [mg/dL] | Serum Phospholipid Level (Serum Phospholipid; [1]) [mg/dL] | inhibition in vivo at 100 mg/kg (Serum Phospholipid; [2]) [%] | Serum Triglyceride Level (Serum Triglyceride; [5]) [mg/dL] | inhibition in vivo at 100 mg/kg (Serum Triglyceride; [6]) [%] | Total Serum Cholesterol Level (Total Serum Cholesterol; [7]) [mg/dL] | inhibition in vivo at 100 mg/kg (Total Serum Cholesterol; [8]) [%] | inhibition in vivo at 100 mg/kg (Blood Glucose; Table 3) [%] | Blood Glucose Level (Blood Glucose; Table 3, control 133 ± 4) [mg/dL] | also measured
1 | CCCCNC(=O)NS(=O)(=O)c1ccc(C)cc1 [Tolubutamide, reference compound] | 63.9 | 48 ± 1 |  |  |  |  |  |  |  |  | Blood sugar effect (in words) (Blood Glucose; oral, rats): excessive hypoglycemia; Serum Phospholipid Level (Serum Phospholipid; 50 mg/kg oral, control 79 ± 2): 75 ± 2 mg/dL; inhibition in vivo at 50 mg/kg (Serum Phospholipid; Rattus norvegicus, 50 mg/kg oral, vs control, read-out: Serum Phospholipid Decrease): 5.1%; Serum Free Fatty Acid Level (Serum Free Fatty Acid; 50 mg/kg oral, control 0.53 ± 0.03): 0.44 ± 0.02 mEq/l; inhibition in vivo at 50 mg/kg (Serum Free Fatty Acid; Rattus norvegicus, 50 mg/kg oral, vs control, read-out: Serum Free Fatty Acid Decrease): 15.7%; Serum Triglyceride Level (Serum Triglyceride; 50 mg/kg oral, control 65 ± 5): 53 ± 4 mg/dL; inhibition in vivo at 50 mg/kg (Serum Triglyceride; Rattus norvegicus, 50 mg/kg oral, vs control, read-out: Serum Triglyceride Decrease): 18.5%; Total Serum Cholesterol Level (Total Serum Cholesterol; 50 mg/kg oral, control 44 ± 2): 46 ± 1 mg/dL; inhibition in vivo at 50 mg/kg (Total Serum Cholesterol; Rattus norvegicus, 50 mg/kg oral, vs control, read-out: Total Serum Cholesterol Decrease): -4.5%
2 | CCCCN1C(=O)NC(=O)C1=O [compound 4, 1-butylimidazolidinetrione] | 33.8 | 88 ± 7 | 58 ± 1 | 26.6 | 23 ± 1 | 64.6 | 39 ± 1 | 11.4 |  |  | Serum Free Fatty Acid Level (Serum Free Fatty Acid; [3]): 0.27 ± 0.02 mEq/l; inhibition in vivo at 100 mg/kg (Serum Free Fatty Acid; [4]): 49.1%
3 | CC(C)CN1C(=O)NC(=O)C1=O [compound 5, 1-iso-butylimidazolidinetrione] | 39.1 | 81 ± 1 |  |  |  |  |  |  |  |  | 
4 | CC(C)(C)N1C(=O)NC(=O)C1=O [compound 6, 1-tert-butylimidazolidinetrione] | 18 | 109 ± 4 |  |  |  |  |  |  |  |  | 
5 | CCCCCCN1C(=O)NC(=O)C1=O [compound 7, 1-hexylimidazolidinetrione] | 23.3 | 102 ± 6 | 66 ± 2 | 16.5 | 38 ± 3 | 41.5 |  |  |  |  | 
6 | CCCCCCCCCCN1C(=O)NC(=O)C1=O [compound 9, 1-decylimidazolidinetrione] | 18 | 109 ± 4 |  |  |  |  |  |  |  |  | 
7 | O=C1NC(=O)N(C2CCCC2)C1=O [compound 10, 1-cyclopentylimidazolidinetrione] | 24.8 | 100 ± 4 |  |  |  |  |  |  |  |  | 
8 | O=C1NC(=O)N(C2CCCCC2)C1=O [compound 11, 1-cyclohexylimidazolidinetrione] | 24.1 | 101 ± 2 | 60 ± 2 | 24.1 | 27 ± 1 | 58.5 | 39 ± 1 | 11.4 |  |  | Serum Free Fatty Acid Level (Serum Free Fatty Acid; [3]): 0.34 ± 0.01 mEq/l; inhibition in vivo at 100 mg/kg (Serum Free Fatty Acid; [4]): 35.8%
9 | CCN1C(=O)C(=O)N(C2CCCC2)C1=O [compound 13, 1-cyclopentyl-3-ethylimidazolidinetrione] | 14.7 | 116 ± 5 |  |  |  |  |  |  |  |  | 
10 | O=C1NC(=O)N(Cc2ccccc2F)C1=O [compound 16, 1-(2-fluorobenzyl)imidazolidinetrione] |  |  | 54 ± 1 | 25 | 30 ± 1 | 47.4 | 33 ± 2 | 19.5 | 11.3 | 118 ± 4 | 
11 | O=C1NC(=O)N(Cc2cccc(F)c2)C1=O [compound 17, 1-(3-fluorobenzyl)imidazolidinetrione] |  |  | 58 ± 1 | 19.4 | 30 ± 1 | 47.4 | 37 ± 1 | 9.8 | 13.5 | 115 ± 2 | 
12 | O=C1NC(=O)N(Cc2ccc(Br)cc2)C1=O [compound 21, 1-(4-bromobenzyl)imidazolidinetrione] |  |  | 57 ± 1 | 20.8 | 35 ± 2 | 38.6 | 36 ± 1 | 12.2 |  |  | Serum Free Fatty Acid Level (Serum Free Fatty Acid; [3]): 0.44 ± 0.02 mEq/l; inhibition in vivo at 100 mg/kg (Serum Free Fatty Acid; [4]): 15.2%
13 | O=C1NC(=O)N(Cc2ccc([N+](=O)[O-])cc2)C1=O [compound 23, 1-(4-nitrobenzyl)imidazolidinetrione] |  |  | 65 ± 2 | 9.7 | 38 ± 2 | 33.3 |  |  | 12 | 117 ± 3 | 
14 | Cc1cccc(CN2C(=O)NC(=O)C2=O)c1 [compound 25, 1-(3-methylbenzyl)imidazolidinetrione] |  |  | 57 ± 2 | 20.8 | 33 ± 2 | 42.1 | 36 ± 1 | 12.2 | 13.5 | 115 ± 3 | 
15 | Cc1ccc(CN2C(=O)NC(=O)C2=O)cc1 [compound 26, 1-(4-methylbenzyl)imidazolidinetrione] |  |  | 58 ± 1 | 19.4 | 37 ± 1 | 35.1 | 37 ± 1 | 9.8 | 9.8 | 120 ± 2 | 
16 | COc1ccc(CN2C(=O)NC(=O)C2=O)cc1 [compound 29, 1-(4-methoxybenzyl)imidazolidinetrione] |  |  | 58 ± 1 | 19.4 | 43 ± 3 | 24.6 | 36 ± 1 | 12.2 | 9.8 | 120 ± 2 | 
